Among the data in patent publication US8809314B1, “Cephalosporin compound” (Cubist Pharmaceuticals, Inc., priority 2012, dated 2014) are MIC values, retold here.

As a reminder, the MIC is the lowest concentration found to suppress growth.

In one assay the test system is Sa399 (MRSA). The experiment in a line: MIC, broth microdilution (Example 3), Table 1. The following applies: Staphylococcus aureus, CAMHB, final 2% NaCl. In kind it is cell-based. The procedure:
(§1) To prepare for MIC testing, individual colonies were isolated by streaking frozen glycerol material containing Staphylococcus or Pseudomonas spp. onto rich, non-selective, tryptic soy agar containing 5% sheep's blood (TSAB), and incubated at 37° C. for 18-24 hrs.
(§2) On the day of testing, primary cultures were started by scraping off 5-10 colonies from the TSAB plates. The material was suspended in ˜5 mL of cation adjusted Mueller Hinton Broth (CAMHB) in 14 mL culture tubes and incubated at 37° C. with aeration (200 rpm) for ˜2 hrs until the OD600 was ≧0.1.
(§3) Inoculum cultures were prepared by standardizing the primary cultures to OD600=0.1 and then adding 20 μL of the adjusted primary culture per 1 mL CAMHB for Pseudomonas and CAMHB plus 4% NaCl for MRSA so that the final inoculum density was ˜10^5 colony forming units per milliliter. Diluted inoculum cultures were used to inoculate 50 μL per well in 96 well broth microdilution assay plates. 50 μL of CAMHB that contained compound concentrations ranging from 64-0.06 μg/mL in two-fold dilutions was also added to the broth microdilution assay plates for a final volume 100 μL per well, therefore final culture OD600 was approximately 0.001 and the final NaCl concentration for the MRSA strain was 2%.
(§4) Plates were incubated for 18-20 hours at 37° C. with aeration (200 rpm). Following incubation, growth was confirmed visually placing plates over a viewing apparatus (stand with a mirror underneath) and then OD600 was measured using a SpectraMax 340PC384 plate reader (Molecular Devices, Sunnyvale, Calif.). Growth was defined as turbidity that could be detected with the naked eye or achieving minimum OD600 of 0.1. MIC values were defined as the lowest concentration producing no visible turbidity.
For orientation: Broth dilution looks for growth in wells or tubes with falling amounts of substance.

The test system of another assay is Pa44 (WT Pa). The experiment in a line: MIC, broth microdilution (Example 3), Table 1. The following applies: Pseudomonas aeruginosa, CAMHB. It counts as cell-based. The procedure:
as §1, §2, §3, §4

Regarding `CO/N=C(\C(=O)N[C@@H]1C(=O)N2C(C(=O)[O-])=C(C[n+]3ccc(CNC(=O)c4ccccc4)cc3)CS[C@H]12)c1nc(N)sc1Cl` [Compound 1-2], the values for the minimal inhibitory concentration (MIC) against Sa399 (MRSA) and in the assay with Pa44 (WT Pa) were at most 4 µg/mL and above 16 µg/mL, respectively.
As for `CO/N=C(\C(=O)N[C@@H]1C(=O)N2C(C(=O)[O-])=C(C[N+]3(C)CCCC3)CS[C@H]12)c1csc(N)n1` [Cefepime], the values for the MIC against Sa399 (MRSA) and against Pa44 (WT Pa) were above 16 µg/mL and at most 4 µg/mL, respectively.
